Source: publication PMC12605013, “SAG1.3-derived Frizzled-targeting small-molecule compounds” (The Journal of Biological Chemistry, 2025)

T1: Nluc-FZD6 (Homo sapiens, UniProt O60353)
T1 construct: expressed in transfected cells; host or cells: ΔSMO HEK293A or ΔFZD1–10 HEK293T cells (screen); ΔFZD1–10 HEK293T cells (concentration–response curves)
T1 sequence (O60353 19-706): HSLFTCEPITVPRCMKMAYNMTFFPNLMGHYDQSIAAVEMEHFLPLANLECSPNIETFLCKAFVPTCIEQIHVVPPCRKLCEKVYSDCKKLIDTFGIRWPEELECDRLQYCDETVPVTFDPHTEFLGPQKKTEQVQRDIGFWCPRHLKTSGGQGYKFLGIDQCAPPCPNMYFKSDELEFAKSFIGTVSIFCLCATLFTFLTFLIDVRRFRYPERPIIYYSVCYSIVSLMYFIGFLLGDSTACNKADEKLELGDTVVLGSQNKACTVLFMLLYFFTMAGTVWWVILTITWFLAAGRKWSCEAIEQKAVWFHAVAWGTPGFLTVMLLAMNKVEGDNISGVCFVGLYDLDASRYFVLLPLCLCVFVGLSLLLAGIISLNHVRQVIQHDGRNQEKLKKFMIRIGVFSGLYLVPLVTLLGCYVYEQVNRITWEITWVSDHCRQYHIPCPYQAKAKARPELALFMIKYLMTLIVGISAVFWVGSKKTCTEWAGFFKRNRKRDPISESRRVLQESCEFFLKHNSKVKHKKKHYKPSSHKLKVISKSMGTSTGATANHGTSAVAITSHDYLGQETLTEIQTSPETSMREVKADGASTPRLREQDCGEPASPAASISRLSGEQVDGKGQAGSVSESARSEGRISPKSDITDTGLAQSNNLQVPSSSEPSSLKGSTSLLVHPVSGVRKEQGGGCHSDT


How the values were obtained:
[1] = target: T1, Nluc-FZD6; assay: BRET-based BODIPY-cyclopamine competition binding at Nluc-FZD6 in live HEK293 cells; settings: for Displacement % / Displacement @ 10 µM compound (Nluc-FZD6) ΔBRET: 10 µM compound, BODIPY-cyclopamine 300 nM
Method: After 24 h, cells were washed once with Hanks' balanced salt solution (HBSS), followed by the addition of 80 μl of HBSS. Next, 10 μl of the competitive ligand, that is, the tested SAG1.3 derivative (either in different concentrations for the concentration–response curves or at a final concentration of 10 μM for the first screens) and 10 μl of the fluorescent tracer BODIPY–cyclopamine (final concentration: 300 nM for the first screens, 200 nM for the concentration–response experiments) were added. All serial dilutions were prepared in HBSS. The cells were incubated for 90 min at 37 °C without additional CO2, after which 10 μl of luciferase substrate diluted in HBSS (furimazine; Promega, N1572, final dilution: 1:1000 for first screening) and coelenterazine h (Biosynth; final concentration: 5 μM for concentration–response experiments) were added to the cells. Following a 10 min incubation period in the dark, the measurement was started on a BMG Labtech ClarioStar or TECAN Spark multimode microplate reader, prewarmed to 37 °C. Nluc bioluminescence was detected between 460 and 490 nm (ClarioStar) or 460 and 500 nm (TECAN Spark). The emission of the fluorescent tracer was detected between 520 and 550 nm (ClarioStar) or between 520 and 560 nm (TECAN Spark).
For each binding experiment, the measurement was repeated five times and averaged for the analysis. ΔBRET values were obtained by subtracting the BRET ratio obtained in wells containing BODIPY–cyclopamine but no competitive ligand (100% value). The BRET values for full displacement were defined using “donor-only” control wells, which contained Nluc-FZDx-transfected cells but no BODIPY–cyclopamine.
For the full concentration–response BRET binding curves in Figure 2, BRET values were normalized (separately for each experiment) to control wells containing BODIPY–cyclopamine but no competitive ligand (100% value) and “donor-only” wells (0% value, described previously). […] Obtained IC50 values were transformed to pIC50 values, which were subsequently averaged between experiments. Displacement curves showing the non-normalized data (ΔBRET values generated as described previously) can be found in Fig. S2.
Shown are mean values and SDs from N independent experiments (N = 2-8) performed in duplicate.
Shown are mean values ± SEM from N independent experiments performed in triplicate.

[2] = test system: FZD6; set-up: method as in PMID 31964872, PMID 34168128; settings: ref [18], [24]; cited from earlier work
[3] = set-up: method as in PMID 31338636, PMID 32803633; settings: ref [14], [54]; cited from earlier work
[4] = TECAN Spark reader (complete tracer displacement: net BRET = -0.03823)
[5] = BODIPY-cyclopamine 200 nM, ΔFZD1-10 HEK293T cells
[6] = BMG Labtech ClarioStar reader (complete tracer displacement: net BRET = -0.02736)

Molecule | Displacement % ([1]; TECAN Spark reader) | Displacement @ 10 µM compound (Nluc-FZD6) ΔBRET [1, 4] | pIC50 (Nluc-FZD6) mean ± SEM [1, 5] | further results
CN1CCC(C(=O)Nc2cccc(C(=O)N[C@H]3CC[C@H](N(Cc4cccc(-c5ccncc5)c4)C(=O)c4sc5ccccc5c4Cl)CC3)c2)CC1 [compound 17, N-(3-(((1r,4r)-4-(3-Chloro-N-(3-(pyridin-4-yl)benzyl)benzo[b]thiophene-2-carboxamido)cyclohexyl)-carbamoyl)phenyl)-1-methylpiperidine-4-carboxamide] | 73.6% | -0.0281 | 5.49 ± 0.04 | –
CC(C)C(=O)Nc1cccc(C(=O)N[C@H]2CC[C@H](N(Cc3cccc(-c4ccncc4)c3)C(=O)c3sc4ccccc4c3Cl)CC2)c1 [compound 15, 3-Chloro-N-((1r,4r)-4-(3-isobutyramidobenzamido)cyclohexyl)-N-(3-(pyridin-4-yl)benzyl)benzo[b]thiophene-2-carboxamide] | 70.1% | -0.0268 | 5.13 ± 0.16 | –
O=C(NC1CCC(N(Cc2ccc(-c3cccnc3)cc2)C(=O)c2sc3ccccc3c2Cl)CC1)c1ccco1 (stereo not shown) [compound 52, N-(4-(3-Chloro-N-(4-(pyridin-3-yl)benzyl)benzo[b]thiophene-2-carboxamido)cyclohexyl)furan-2-carboxamide] | – | – | – | Displacement @ 10 µM compound (Nluc-FZD6) ΔBRET [1, 6]: -0.0194; Displacement % ([1]; ClarioStar reader): 70.9%; IC50 ([1]; BODIPY-cyclopamine 200 nM, ΔFZD1-10 HEK293T cells, read-out: pIC50 (Nluc-FZD6) mean ± SEM (converted)): 8.71 µM
O=C(N[C@H]1CC[C@H](N(Cc2cccc(-c3ccncc3)c2)C(=O)c2sc3ccccc3c2Cl)CC1)c1ccco1 [compound 10] | – | – | 5.29 ± 0.02 | Displacement @ 10 µM compound (Nluc-FZD6) ΔBRET [1, 6]: -0.0207; Displacement % ([1]; ClarioStar reader): 75.5%
CCC(=O)Nc1cccc(C(=O)N[C@H]2CC[C@H](N(Cc3cccc(-c4ccncc4)c3)C(=O)c3sc4ccccc4c3Cl)CC2)c1 [compound 14, 3-Chloro-N-((1r,4r)-4-(3-propionamidobenzamido)cyclohexyl)-N-(3-(pyridin-4-yl)benzyl)benzo[b]thiophene-2-carboxamide] | 75.9% | -0.0290 | 5.57 ± 0.17 | –
CN[C@H]1CC[C@H](N(Cc2cccc(-c3ccncc3)c2)C(=O)c2sc3ccccc3c2Cl)CC1.Cl.Cl [SAG1.3, 3-chloro-N-[trans-4-(methylamino)cyclohexyl]-N-[[3-(4-pyridinyl)phenyl]methyl]-benzo[b]thiophene-2-carboxamide dihydrochloride] | 38.7% | -0.0148 | – | Displacement @ 10 µM compound (Nluc-FZD6) ΔBRET [1, 6]: -0.0099; Displacement % ([1]; ClarioStar reader): 36.1%; Efficacy at FZD6 [2]: very low efficacy; Potency at FZD6 [2]: double-digit micromolar potency
vantictumab: monoclonal antibody binding to five of 10 FZD paralogs (antibody, chains of the INN, looked up, V domains shown) VH: EVQLVESGGGLVQPGGSLRLSCAASGFTFSHYTLSWVRQAPGKGLEWVSVISGDGSYTYYADSVKGRFTISSDNSKNTLYLQMNSLRAEDTAVYYCARNFIKYVFANWGQGTLVTVSS VL: DIELTQPPSVSVAPGQTARISCSGDNIGSFYVHWYQQKPGQAPVLVIYDKSNRPSGIPERFSGSNSGNTATLTISGTQAEDEADYYCQSYANTLSLVFGGGTKLTVL | – | – | – | Reason for dismissal in phase Ib clinical trials [3]: bone toxicity

Now from value to molecule, other results behind:

Displacement % ([1]; TECAN Spark reader) | Displacement @ 10 µM compound (Nluc-FZD6) ΔBRET [1, 4] | pIC50 (Nluc-FZD6) mean ± SEM [1, 5] | Molecule | further results
85.8% | -0.0328 | 5.54 ± 0.03 | Nc1ccc(C(=O)N[C@H]2CC[C@H](N(Cc3cccc(-c4ccncc4)c3)C(=O)c3sc4ccccc4c3Cl)CC2)nn1 [compound 23, 6-Amino-N-((1r,4r)-4-(3-chloro-N-(3-(pyridin-4-yl)benzyl)benzo[b]thiophene-2-carboxamido)cyclohexyl)pyridazine-3-carboxamide] | –
78.2% | -0.0299 | 5.44 ± 0.05 | O=C(N[C@H]1CC[C@H](N(Cc2cccc(-c3ccncc3)c2)C(=O)c2sc3ccccc3c2Cl)CC1)c1ccncc1Cl [compound 21, 3-Chloro-N-((1r,4r)-4-(3-chloro-N-(3-(pyridin-4-yl)benzyl)benzo[b]thiophene-2-carboxamido)cyclohexyl)isonicotinamide] | –
81.1% | -0.0310 | 5.50 ± 0.04 | CN1CCN(CC(=O)Nc2cccc(C(=O)N[C@H]3CC[C@H](N(Cc4cccc(-c5ccncc5)c4)C(=O)c4sc5ccccc5c4Cl)CC3)c2)CC1 [compound 18, 3-Chloro-N-((1r,4r)-4-(3-(2-(4-methylpiperazin-1-yl)acetamido)benzamido)cyclohexyl)-N-(3-(pyridin-4-yl)benzyl)benzo[b]thiophene-2-carboxamide] | –
87.6% | -0.0335 | 5.71 ± 0.04 | O=C(CN1CCOCC1)Nc1cccc(C(=O)N[C@H]2CC[C@H](N(Cc3cccc(-c4ccncc4)c3)C(=O)c3sc4ccccc4c3Cl)CC2)c1 [compound 19, 3-Chloro-N-((1r,4r)-4-(3-(2-morpholinoacetamido)benzamido)cyclohexyl)-N-(3-(pyridin-4-yl)benzyl)benzo[b]thiophene-2-carboxamide] | –
